Measurements taken from patent publication US20180016616A1, “METHODS AND COMPOSITIONS FOR THE DETECTION OF FUNCTIONAL CLOSTRIDIUM DIFFICILE TOXINS” (BOARD OF REGENTS OF THE UNIVERSITY OF TEXAS SYSTEM, priority 2011, published 2018).
Read-outs that look alike come from different tables or passages of the source.

Tests used:
[1] = system: C. difficile toxins A and B; test: Evaluation of chromogenic substrates for the Cdifftox Activity assay; assay type: biochemical, Clostridium difficile
Method: A Cdifftox Activity assay was used to identify fractions that contained PNPG cleavage activity. The assay consists of the Cdifftox substrate reagent composed of 10 mM PNPG, 50 mM Tris-HCl (pH 7.4), 50 mM NaCl, and 100 μM MnCl2. The assay was performed in Costar sterile polystyrene 96-well plates (Corning Inc., NY) by adding to each well 200 μl of sample or culture supernatant fluid containing the toxins and 100 μl of the reagent. The plate was incubated at 37° C. for 1-4 hrs and each reaction was stopped by the addition to the well of 40 μl of 3 M Na2CO3. Cleavage of the substrate was monitored by measuring the absorbance between 400-500 nm, with a SPECTRA max at 410 nm.
Plus 384 spectrophotometer (Molecular Devices, Sunnyvale, Calif.). To identify the best substrate for the assay, a number of substrates were evaluated including: p-nitrophenyl-α-D-glucopyranoside, 4-aminophenyl-α-D-glucopyranoside, 4-amino-phenyl-β-D-glucopyranoside, 5-benzyloxy-3-indoxyl-β-D-glucopyranoside, 5-bromo-6-chloro-3-indoxyl-β-D-glucopyranoside, 6-bromo-2-naphthyl-α-D-glucopyranoside, 6-chloro-3-indoxyl-α-D-glucopyranoside, 6-chloro-3-indoxyl-N-acetyl-beta-D-glucos-aminide, 5-bromo-3-indoxyl-β-D-galactopyranoside, and 5-bromo-4-chloro-3-indoxyl-β-D-galactopyranoside. […]

[2] = molecular target: T1, C. difficile toxin B (Clostridioides difficile, UniProt P18177); test: biochemical; conditions: read-out: reduction of toxin B activity (percent inhibition)
T1 sequence (P18177 whole entry): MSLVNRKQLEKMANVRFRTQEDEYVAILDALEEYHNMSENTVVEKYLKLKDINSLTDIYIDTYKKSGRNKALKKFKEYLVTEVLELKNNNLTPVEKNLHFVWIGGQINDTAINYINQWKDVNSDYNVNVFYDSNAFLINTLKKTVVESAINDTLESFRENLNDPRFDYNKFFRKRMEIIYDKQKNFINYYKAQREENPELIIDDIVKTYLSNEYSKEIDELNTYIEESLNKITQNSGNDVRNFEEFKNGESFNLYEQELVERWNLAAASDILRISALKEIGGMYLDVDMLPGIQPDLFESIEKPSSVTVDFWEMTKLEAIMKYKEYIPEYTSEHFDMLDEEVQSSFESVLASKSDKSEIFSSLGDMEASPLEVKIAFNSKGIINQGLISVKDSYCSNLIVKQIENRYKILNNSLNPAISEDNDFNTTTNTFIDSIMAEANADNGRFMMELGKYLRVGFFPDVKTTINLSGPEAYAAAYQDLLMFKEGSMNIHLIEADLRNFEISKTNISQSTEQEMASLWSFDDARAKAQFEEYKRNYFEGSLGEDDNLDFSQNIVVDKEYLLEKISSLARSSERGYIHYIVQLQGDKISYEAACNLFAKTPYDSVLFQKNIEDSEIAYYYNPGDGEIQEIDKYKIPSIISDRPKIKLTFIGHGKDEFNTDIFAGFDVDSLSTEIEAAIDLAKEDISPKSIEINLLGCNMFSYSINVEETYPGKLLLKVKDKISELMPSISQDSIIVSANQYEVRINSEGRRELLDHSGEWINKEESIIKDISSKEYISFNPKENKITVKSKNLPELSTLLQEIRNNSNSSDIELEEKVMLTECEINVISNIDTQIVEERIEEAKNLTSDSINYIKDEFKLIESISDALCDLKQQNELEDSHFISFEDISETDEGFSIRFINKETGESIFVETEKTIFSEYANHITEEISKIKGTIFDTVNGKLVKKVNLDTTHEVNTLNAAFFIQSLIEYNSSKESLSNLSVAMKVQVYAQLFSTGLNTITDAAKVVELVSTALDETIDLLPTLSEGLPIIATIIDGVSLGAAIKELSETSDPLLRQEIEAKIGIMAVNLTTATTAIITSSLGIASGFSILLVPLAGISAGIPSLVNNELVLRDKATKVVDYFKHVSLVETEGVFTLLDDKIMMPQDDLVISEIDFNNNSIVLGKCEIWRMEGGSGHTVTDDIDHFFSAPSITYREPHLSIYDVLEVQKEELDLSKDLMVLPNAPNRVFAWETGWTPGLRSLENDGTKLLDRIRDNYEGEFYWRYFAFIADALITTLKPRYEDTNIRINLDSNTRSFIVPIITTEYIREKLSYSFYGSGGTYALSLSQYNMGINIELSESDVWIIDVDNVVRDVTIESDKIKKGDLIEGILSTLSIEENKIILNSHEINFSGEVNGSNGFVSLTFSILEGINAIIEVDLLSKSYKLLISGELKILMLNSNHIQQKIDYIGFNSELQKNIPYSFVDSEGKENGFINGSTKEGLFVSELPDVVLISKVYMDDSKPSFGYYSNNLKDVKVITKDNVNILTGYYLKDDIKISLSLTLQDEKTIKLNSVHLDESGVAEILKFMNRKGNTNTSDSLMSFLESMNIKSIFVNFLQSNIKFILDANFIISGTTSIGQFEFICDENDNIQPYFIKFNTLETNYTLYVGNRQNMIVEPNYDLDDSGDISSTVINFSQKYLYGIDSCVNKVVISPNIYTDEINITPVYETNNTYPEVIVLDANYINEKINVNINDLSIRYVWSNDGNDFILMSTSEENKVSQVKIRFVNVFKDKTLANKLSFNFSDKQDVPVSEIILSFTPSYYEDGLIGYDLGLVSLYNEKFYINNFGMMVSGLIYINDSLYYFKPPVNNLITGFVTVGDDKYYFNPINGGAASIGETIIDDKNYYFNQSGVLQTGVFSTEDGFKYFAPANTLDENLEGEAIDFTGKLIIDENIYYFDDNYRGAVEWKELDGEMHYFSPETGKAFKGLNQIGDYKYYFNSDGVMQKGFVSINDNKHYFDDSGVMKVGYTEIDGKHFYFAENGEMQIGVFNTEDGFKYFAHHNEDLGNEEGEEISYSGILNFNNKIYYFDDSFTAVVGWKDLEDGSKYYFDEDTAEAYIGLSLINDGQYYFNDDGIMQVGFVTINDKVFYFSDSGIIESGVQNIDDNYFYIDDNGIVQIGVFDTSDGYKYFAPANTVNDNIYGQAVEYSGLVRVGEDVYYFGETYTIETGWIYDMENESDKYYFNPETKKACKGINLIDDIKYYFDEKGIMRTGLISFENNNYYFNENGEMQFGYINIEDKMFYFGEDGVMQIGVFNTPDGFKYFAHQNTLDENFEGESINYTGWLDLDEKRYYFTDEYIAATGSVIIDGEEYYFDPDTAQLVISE

[3] = system: C. difficile spores; conditions: 0.1% or approximately 1.9 mM
[4] = system: C. difficile toxins A and B; conditions: 0.1% or approximately 1.9 mM
[5] = molecular target: T2, C. difficile toxin A (Clostridioides difficile, UniProt P16154); test: biochemical; conditions: read-out: reduction of toxin A activity (percent inhibition)
T2 sequence (P16154 whole entry, looked up): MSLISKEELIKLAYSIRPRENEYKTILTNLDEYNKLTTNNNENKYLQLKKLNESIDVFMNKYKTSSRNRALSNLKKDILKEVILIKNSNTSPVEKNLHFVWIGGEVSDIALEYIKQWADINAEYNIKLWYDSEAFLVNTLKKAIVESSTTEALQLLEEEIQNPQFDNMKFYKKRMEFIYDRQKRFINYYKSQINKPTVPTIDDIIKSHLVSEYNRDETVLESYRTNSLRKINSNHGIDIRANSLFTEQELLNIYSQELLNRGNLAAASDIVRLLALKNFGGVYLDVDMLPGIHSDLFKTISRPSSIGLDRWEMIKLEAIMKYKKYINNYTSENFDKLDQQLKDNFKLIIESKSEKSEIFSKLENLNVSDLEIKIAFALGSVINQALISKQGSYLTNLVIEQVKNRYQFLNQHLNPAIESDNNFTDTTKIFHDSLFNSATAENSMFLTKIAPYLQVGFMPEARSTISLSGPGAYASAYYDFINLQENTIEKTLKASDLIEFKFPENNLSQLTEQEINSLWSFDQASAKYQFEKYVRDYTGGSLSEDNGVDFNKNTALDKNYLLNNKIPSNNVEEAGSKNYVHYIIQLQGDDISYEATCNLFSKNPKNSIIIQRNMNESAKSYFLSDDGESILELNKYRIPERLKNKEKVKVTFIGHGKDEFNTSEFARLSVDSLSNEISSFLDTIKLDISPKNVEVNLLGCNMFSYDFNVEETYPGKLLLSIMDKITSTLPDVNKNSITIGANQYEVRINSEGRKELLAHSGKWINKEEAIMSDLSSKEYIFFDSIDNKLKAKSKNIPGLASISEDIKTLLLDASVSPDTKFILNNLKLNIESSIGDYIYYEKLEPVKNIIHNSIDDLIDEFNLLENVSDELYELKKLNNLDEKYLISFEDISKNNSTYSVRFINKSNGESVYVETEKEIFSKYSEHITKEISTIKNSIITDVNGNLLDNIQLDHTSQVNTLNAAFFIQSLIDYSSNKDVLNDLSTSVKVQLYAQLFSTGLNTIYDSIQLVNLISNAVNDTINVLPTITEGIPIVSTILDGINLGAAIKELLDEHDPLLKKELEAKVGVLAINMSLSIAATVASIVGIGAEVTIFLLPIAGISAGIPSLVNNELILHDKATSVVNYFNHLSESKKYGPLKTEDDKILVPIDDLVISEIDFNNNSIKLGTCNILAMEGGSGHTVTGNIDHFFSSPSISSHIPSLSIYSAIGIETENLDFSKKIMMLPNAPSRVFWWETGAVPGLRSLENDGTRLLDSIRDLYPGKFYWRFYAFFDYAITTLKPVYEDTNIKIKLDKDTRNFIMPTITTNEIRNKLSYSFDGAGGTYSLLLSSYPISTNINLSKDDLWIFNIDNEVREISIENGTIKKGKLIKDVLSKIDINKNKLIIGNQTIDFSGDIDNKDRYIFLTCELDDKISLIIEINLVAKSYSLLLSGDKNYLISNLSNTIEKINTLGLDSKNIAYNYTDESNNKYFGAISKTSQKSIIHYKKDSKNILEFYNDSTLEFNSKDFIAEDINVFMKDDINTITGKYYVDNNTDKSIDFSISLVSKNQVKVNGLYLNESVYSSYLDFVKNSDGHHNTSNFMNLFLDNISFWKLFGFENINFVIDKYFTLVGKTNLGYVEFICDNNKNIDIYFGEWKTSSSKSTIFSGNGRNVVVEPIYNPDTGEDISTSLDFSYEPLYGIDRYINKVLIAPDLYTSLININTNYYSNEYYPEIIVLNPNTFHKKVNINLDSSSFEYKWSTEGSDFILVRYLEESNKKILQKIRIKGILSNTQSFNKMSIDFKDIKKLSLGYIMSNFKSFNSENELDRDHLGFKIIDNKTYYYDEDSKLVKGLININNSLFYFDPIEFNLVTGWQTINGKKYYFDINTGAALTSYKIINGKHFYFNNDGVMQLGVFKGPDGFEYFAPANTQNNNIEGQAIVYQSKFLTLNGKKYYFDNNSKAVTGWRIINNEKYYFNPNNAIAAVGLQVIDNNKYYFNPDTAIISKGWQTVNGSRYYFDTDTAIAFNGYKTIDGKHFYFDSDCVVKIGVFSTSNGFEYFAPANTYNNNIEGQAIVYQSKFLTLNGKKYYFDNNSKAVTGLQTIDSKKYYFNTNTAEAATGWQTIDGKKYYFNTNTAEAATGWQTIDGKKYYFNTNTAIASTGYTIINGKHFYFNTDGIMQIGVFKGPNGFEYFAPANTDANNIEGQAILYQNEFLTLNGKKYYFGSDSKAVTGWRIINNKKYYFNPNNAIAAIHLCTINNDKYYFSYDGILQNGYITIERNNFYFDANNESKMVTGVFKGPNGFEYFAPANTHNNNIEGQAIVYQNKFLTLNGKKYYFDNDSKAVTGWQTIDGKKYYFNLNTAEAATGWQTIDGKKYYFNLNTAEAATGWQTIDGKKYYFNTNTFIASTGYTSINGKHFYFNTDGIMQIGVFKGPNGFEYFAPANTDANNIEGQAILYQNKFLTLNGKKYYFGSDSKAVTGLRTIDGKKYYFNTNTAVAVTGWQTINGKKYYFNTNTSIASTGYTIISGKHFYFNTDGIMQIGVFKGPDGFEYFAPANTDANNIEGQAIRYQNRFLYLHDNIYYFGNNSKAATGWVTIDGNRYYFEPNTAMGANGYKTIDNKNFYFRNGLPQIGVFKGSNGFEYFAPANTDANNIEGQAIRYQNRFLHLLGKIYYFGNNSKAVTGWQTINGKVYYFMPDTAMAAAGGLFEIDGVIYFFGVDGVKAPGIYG

[6] = system: mammalian β-glucosidases; conditions: cited from earlier work
[7] = molecular target: T2, C. difficile toxin A; conditions: 0-300 mM
[8] = molecular target: T1, C. difficile toxin B; conditions: 0-300 mM

O=[N+]([O-])c1ccc(O[C@@H]2O[C@H](CO)[C@@H](O)[C@H](O)[C@H]2O)cc1 [PNPG, p-nitrophenyl-β-D-glucopyranoside]
cleavage by the toxins compared with other substrates evaluated [1]: most efficient and sensitive, and had the lowest background

C[C@H](CCC(=O)NCCS(=O)(=O)O)[C@H]1CC[C@H]2[C@@H]3[C@H](O)C[C@@H]4C[C@H](O)CC[C@]4(C)[C@H]3C[C@H](O)[C@]12C [sodium taurocholate]
inhibition at 300000 µM [2]: 86% | effect on C. difficile spores in plate assay medium [3]: serves as a germinant | inhibition of cleavage activity of the toxins at low concentration [4]: does not inhibit | inhibition at 300000 µM [5]: 71% | inhibition of β-glucosidases, mode ([6]; listed as Sodium taurocholate): non-competitively inhibit | inhibition of β-glucosidases, mode ([6]; listed as taurocholate): non-competitive | inhibition of toxin A PNPG cleavage activity, dose response [7]: dose-dependent | inhibition of toxin B PNPG cleavage activity, dose response [8]: dose-dependent

phosphatidylserine
inhibition of β-glucosidases, mode [6]: non-competitive
